ChEMBL document CHEMBL1641593, “Benzothieno[3,2-b]quinolinium and 3-(phenylthio)quinolinium compounds: Synthesis and evaluation against opportunistic fungal pathogens” (Bioorg Med Chem, 2011)
The source made the active and inactive calls. The rule behind the calls is not given here.

What was measured:
Cryptococcus neoformans [1] = test: Antifungal activity against Cryptococcus neoformans ATCC 90113 by CLSI method; type: functional, organism-based
Aspergillus fumigatus = test: Antifungal activity against Aspergillus fumigatus ATCC 90906 by CLSI method; type: functional, organism-based
Candida albicans [2] = test: Antifungal activity against Candida albicans ATCC 90028 by CLSI method; type: functional, organism-based
Vero = test: Cytotoxicity against african green monkey Vero cells after 48 hrs by neutral red assay; type: cell-based; settings: Chlorocebus sabaeus
Candida albicans [3] = test: Antifungal activity against Candida albicans ATCC 90028 at 20 ug/ml by CLSI method; type: functional, organism-based
Cryptococcus neoformans [4] = test: Antifungal activity against Cryptococcus neoformans ATCC 90113 at 20 ug/ml by CLSI method; type: functional, organism-based
Pichia kudriavzevii = test: Antifungal activity against Candida krusei ATCC 6258 by CLSI method; type: functional, organism-based
[5] = Candida albicans, ATCC 90028, read-out: MFC

Row | IC50 (Cryptococcus neoformans [1]) [µg/mL] | MIC (Cryptococcus neoformans [1]) [µg/mL] | IC50 (Aspergillus fumigatus) [µg/mL] | MIC (Aspergillus fumigatus) [µg/mL] | IC50 (Candida albicans [2]; Candida albicans, ATCC 90028) [µg/mL] | MIC (Candida albicans [2]; Candida albicans, ATCC 90028) [µg/mL] | IC50 (Pichia kudriavzevii) [µg/mL] | MIC (Pichia kudriavzevii) [µg/mL] | Structure (SMILES) | IC50 (Vero) [µg/mL] | Activity (Candida albicans [3]) | Activity (Cryptococcus neoformans [4]) | MFC (Cryptococcus neoformans [1]) [µg/mL] | MFC (Aspergillus fumigatus) [µg/mL] | MFC (Candida albicans [2]) [µg/mL] | MFC (Candida albicans [2]; [5]) [µg/mL] | MFC (Pichia kudriavzevii) [µg/mL]
1 | 15 | > 20 | 6.5 | 10 | > 20 | > 20 |  |  | C[n+]1c2ccccc2cc2sc3c(Cl)cccc3c21.[I-] |  |  |  |  |  |  |  | 
2 |  | > 20 |  | > 20 |  | 7.8 |  |  | C[n+]1c2ccccc2cc2sc3ccccc3c21.[I-] | > 23.8 |  |  |  |  |  |  | 
3 |  |  | 8 | 20 |  |  |  |  | COc1ccc2sc3cc4ccccc4[n+](C)c3c2c1.[I-] |  | inactive | inactive |  |  |  |  | 
4 |  | 8 | 20 |  | > 20 | > 20 |  |  | COc1ccc2c(c1)cc1sc3ccccc3c1[n+]2C.[I-] | > 23.8 |  |  |  |  |  |  | 
5 |  |  |  |  |  |  |  |  | COc1cccc2c1cc1sc3ccccc3c1[n+]2C |  |  | inactive |  |  |  |  | 
6 | 1.5 | 5 |  | 1.3 | 5.5 | 10 | 1.5 | 5 | [I-].c1ccc(CCCCC[n+]2cc(Sc3ccccc3)cc3ccccc32)cc1 |  |  |  | 10 | > 20 | 20 | > 20 | 20
7 |  |  | 1 | 2.5 | 6 | 20 |  |  | COc1ccc2c(c1)sc1cc3ccccc3[n+](C)c12.[I-] |  |  | inactive |  |  |  |  | 
8 | 0.5 | 1.3 | 8.6 | 10 | 2.7 | 5 | 0.7 | 1.3 | [I-].c1ccc(Sc2cc3ccccc3[n+](CCCCCC3CCCCC3)c2)cc1 | 4.6 |  |  | 2.5 | > 20 |  |  | 2.5
9 | 15 | 20 |  | > 2.5 | 6 | 20 |  |  | C[n+]1cc(Sc2ccccc2)cc2ccccc21.[I-] |  |  |  | > 20 | 20 |  | > 20 | 
10 |  |  | 9.5 | > 20 | 2.5 | > 20 |  |  | C[n+]1c2ccccc2cc2sc3cc(Cl)ccc3c21.[I-] | > 10 |  | inactive |  |  |  |  | 
11 | 10 | > 20 | 3 | 5 | 7 | > 20 |  |  | COc1cccc2c1sc1cc3ccccc3[n+](C)c12.[I-] | > 10 |  |  |  |  |  |  | 

Row | Structure (SMILES) | IC50 (Cryptococcus neoformans [1]) [µg/mL] | MIC (Cryptococcus neoformans [1]) [µg/mL] | IC50 (Aspergillus fumigatus) [µg/mL] | MIC (Aspergillus fumigatus) [µg/mL] | IC50 (Candida albicans [2]; Candida albicans, ATCC 90028) [µg/mL] | MIC (Candida albicans [2]; Candida albicans, ATCC 90028) [µg/mL] | IC50 (Pichia kudriavzevii) [µg/mL] | MIC (Pichia kudriavzevii) [µg/mL] | IC50 (Vero) [µg/mL] | Activity (Candida albicans [3]) | Activity (Cryptococcus neoformans [4]) | MFC (Cryptococcus neoformans [1]) [µg/mL] | MFC (Aspergillus fumigatus) [µg/mL] | MFC (Candida albicans [2]) [µg/mL] | MFC (Candida albicans [2]; [5]) [µg/mL] | MFC (Pichia kudriavzevii) [µg/mL]
12 | COc1cccc2c1cc1sc3ccccc3c1[n+]2C.O=S(=O)([O-])C(F)(F)F |  |  | 0.8 | 1.3 | 15 | > 20 |  |  | > 4.7 |  |  |  |  |  |  | 
